Each structure is given as a SMILES string.

Series [1] is described as follows: Metabolic characteristics: serum BUN, CRE, ALT. The note with it: for BUN / CRE: mean ± SEM, n = 4–5 mice/group. The series is classed as in vivo, mice. The procedure: Three sets of experiments were performed. The first set was to investigate the protective effects of salidroside. All animals were randomized into 1 of 3 groups (sham injury, CCI + vehicle, CCI + SALD 20). Surgery/injury, behavioral testing, and tissue analyses were performed by different individuals. Behavioral testing and tissue analyses were performed by individuals blinded to the treatment group. Salidroside (Cayman Chemical, Ann Arbor, MI, USA) dissolved in normal saline (0.25 mL) or a corresponding volume of vehicle (saline) was administered intraperitoneally 10 min following injury. Testing after injury was completed as follows: 1) behavioral testing at days 1, 4, 7, 14, 21, and 28 (n = 8–10 mice/group); 2) cresyl violet staining at day 28 (n = 9 mice/group); 3) histology, determination of brain water content, and western blot analysis at day 1 or 3 (n = 5–6 mice/group). To determine the optimal dose of salidroside, a pilot study was performed using 2 different doses (20 and 50 mg/kg) administered 10 min after injury, and neurological deficits and tissue damage were evaluated as the main outcomes. […] The second set of experiment was to assess the effect of the inhibition of PI3K/Akt with the specific PI3K inhibitor, LY294002 (Cell Signaling Technology, Danvers, MA, USA), on salidroside effects. Animals were randomized into 4 groups. Mice received either: 1) icv pretreatment of LY294002 followed by SALD 20 after CCI (S20Y group); or 2) icv pretreatment of saline (vehicle control) followed by SALD 20 after CCI (S20V group). 3) Mice were infused icv with saline and were subjected to sham injury. 4) Mice were infused icv with LY294002 and were subjected to sham injury. Testing after injury was completed as follows: 1) cresyl violet staining at day 28 (n = 6 mice/group); 2) western blot analysis at day 1 (n = 6 mice/group). The third set of experiment was performed to examine the neuroprotective time window afforded by salidroside. Mice received intraperitoneal SALD 20 or vehicle (saline) at 3 or 6 h following CCI and were sacrificed 1 day later for FJB staining and western blot analysis (n = 6 mice/group).
Following terminal anesthesia, venous blood was collected via direct right atrial puncture. The obtained blood was centrifuged (3500 rpm for 5 min), and the serum was stored at −20°C until analysis. A chemistry analyzer (Synchron Clinical System LX20; Beckman Coulter, Fullerton, CA, USA) was used to measure serum BUN and CRE to assess renal function, and ALT to assess liver function.

Series [2] has as its system mice subjected to controlled cortical impact injury. Description: Modified neurological severity score (mNSS) after CCI. The series is classed as in vivo. The procedure: All animal procedures were approved by the Animal Research Committee at Cheng Hsin General Hospital (Animal permit number […] 101-08), and all procedures complied with the Guide for the Care and Use of Laboratory Animals published by the US National Institutes of Health (NIH Publication No. 85-23, revised 1996). Animals were housed under a 12-h light/dark cycle and at constant temperature (21-25°C) and humidity (45-50%). They were allowed free access to pellet chow and water. TBI in mice was induced by a CCI injury model as previously described. Briefly, 8-week-old male C57BL/6 mice (weighing 22-25 g) were anesthetized through the use of intraperitoneal injection of sodium pentobarbital (65 mg/kg; Rhone Merieux, Harlow, UK) and placed in a stereotaxic frame. A 5 mm craniotomy was performed over the right parietal cortex, centered on the coronal suture and 0.1 mm lateral to the sagittal suture, and injury to dura was avoided. […] Body temperature was monitored throughout the surgery by a rectal probe; temperature was maintained at 37.0±0.5°C using a heated pad. […] To determine the optimal dose of salidroside, a pilot study was performed using 2 different doses (20 and 50 mg/kg) administered 10 min after injury, and neurological deficits and tissue damage were evaluated as the main outcomes. […]

With `OC[C@H]1O[C@@H](OCCc2ccc(O)cc2)[C@H](O)[C@@H](O)[C@@H]1O` [SALD, salidroside], the “plasma concentrations of BUN, CRE, ALT (effect of treatment)” value in series [1] (20 mg/kg) is recorded as “did not alter”. For the same compound, the BUN in series [1] (SALD 20 mg/kg) came to 23.2 ± 2.49 mg/dL; in series [1] (SALD 50 mg/kg) it was 28.06 ± 4.5 mg/dL. For the same compound, the figures for the CRE in series [1] (SALD 20 mg/kg) and in series [1] (SALD 50 mg/kg) were 0.17 ± 0.01 mg/dL and 0.16 ± 0.04 mg/dL, respectively. The “mNSS scores versus vehicle group” value in series [2] (20 mg/kg ip 10 min after CCI, days 4, 14, 21, 28, all P<0.05) is “significant lower”; in series [2] (50 mg/kg ip 10 min after CCI, days 14, 21, 28, P<0.05) it was “significantly lower”.

The values above are taken from paper PMC3454376, “Salidroside Improves Behavioral and Histological Outcomes and Reduces Apoptosis via PI3K/Akt Signaling after Experimental Traumatic Brain Injury” (PLoS ONE, 2012).
